As a reminder, the inhibition is the change of the read-out against control, counted positive when it falls.

In this assay the target is T1, human Nav1.6 (hNav1.6) (Homo sapiens, UniProt Q9UQD0).
T1 construct: expressed in transfected cells; host or cells: HEK-293 (G418 selection)
Description: Modulation of late sodium current (INaL), PatchXpress electrophysiology. The format is cell-based. As to conditions: HEK293; 1 μM compound; HEK-293 cells expressing recombinant human Nav channel; late current evoked by 300 nM ATX-II; steady-state inhibition; read-out: INaL v1.6 (1 μM, % Inhibition). Here is the method:
Functional characterization of exemplary compounds to modulate INaL expressed by the Nav1.6 voltage-gated sodium channel was accomplished using the PatchXpress™ high throughput electrophysiology platform (Molecular Devices, Sunnyvale, Calif.). HEK-293 cells expressing recombinant, human Nav1.6 (hNav1.6) were grown in DMEM/high-glucose Dulbecco's modified, 10% FBS, 2 mM sodium pyruvate, 10 mM HEPES and 400 μg/mL G418. Cells were grown to 50%-80% confluency prior to harvesting. Trypsinized cells were washed, allowed to recover for 1 hour and then resuspended in extracellular recording solution at a concentration of 1×10^6 cells/ml. The onboard liquid handling facility of the PatchXpress was used for dispensing cells and applying test compounds. Nav late currents were evoked by the application of 300 nM ATX-II. INaL was evoked by depolarizing pulses to 0 mV for 200 ms from a non-inactivating holding potential (e.g., −120 mV) at a frequency of 0.1 Hz. INaL amplitude and stability were determined by analyzing the mean current amplitude over the final 20 ms of the test pulse. […] Percent steady-state inhibition of INaL was calculated as: [(INaL_compound)/(INaL_control)]*100, where INaL_compound and INaL_control represent INaL recorded in the presence or absence of compound, respectively.

T1 sequence (Q9UQD0 whole entry): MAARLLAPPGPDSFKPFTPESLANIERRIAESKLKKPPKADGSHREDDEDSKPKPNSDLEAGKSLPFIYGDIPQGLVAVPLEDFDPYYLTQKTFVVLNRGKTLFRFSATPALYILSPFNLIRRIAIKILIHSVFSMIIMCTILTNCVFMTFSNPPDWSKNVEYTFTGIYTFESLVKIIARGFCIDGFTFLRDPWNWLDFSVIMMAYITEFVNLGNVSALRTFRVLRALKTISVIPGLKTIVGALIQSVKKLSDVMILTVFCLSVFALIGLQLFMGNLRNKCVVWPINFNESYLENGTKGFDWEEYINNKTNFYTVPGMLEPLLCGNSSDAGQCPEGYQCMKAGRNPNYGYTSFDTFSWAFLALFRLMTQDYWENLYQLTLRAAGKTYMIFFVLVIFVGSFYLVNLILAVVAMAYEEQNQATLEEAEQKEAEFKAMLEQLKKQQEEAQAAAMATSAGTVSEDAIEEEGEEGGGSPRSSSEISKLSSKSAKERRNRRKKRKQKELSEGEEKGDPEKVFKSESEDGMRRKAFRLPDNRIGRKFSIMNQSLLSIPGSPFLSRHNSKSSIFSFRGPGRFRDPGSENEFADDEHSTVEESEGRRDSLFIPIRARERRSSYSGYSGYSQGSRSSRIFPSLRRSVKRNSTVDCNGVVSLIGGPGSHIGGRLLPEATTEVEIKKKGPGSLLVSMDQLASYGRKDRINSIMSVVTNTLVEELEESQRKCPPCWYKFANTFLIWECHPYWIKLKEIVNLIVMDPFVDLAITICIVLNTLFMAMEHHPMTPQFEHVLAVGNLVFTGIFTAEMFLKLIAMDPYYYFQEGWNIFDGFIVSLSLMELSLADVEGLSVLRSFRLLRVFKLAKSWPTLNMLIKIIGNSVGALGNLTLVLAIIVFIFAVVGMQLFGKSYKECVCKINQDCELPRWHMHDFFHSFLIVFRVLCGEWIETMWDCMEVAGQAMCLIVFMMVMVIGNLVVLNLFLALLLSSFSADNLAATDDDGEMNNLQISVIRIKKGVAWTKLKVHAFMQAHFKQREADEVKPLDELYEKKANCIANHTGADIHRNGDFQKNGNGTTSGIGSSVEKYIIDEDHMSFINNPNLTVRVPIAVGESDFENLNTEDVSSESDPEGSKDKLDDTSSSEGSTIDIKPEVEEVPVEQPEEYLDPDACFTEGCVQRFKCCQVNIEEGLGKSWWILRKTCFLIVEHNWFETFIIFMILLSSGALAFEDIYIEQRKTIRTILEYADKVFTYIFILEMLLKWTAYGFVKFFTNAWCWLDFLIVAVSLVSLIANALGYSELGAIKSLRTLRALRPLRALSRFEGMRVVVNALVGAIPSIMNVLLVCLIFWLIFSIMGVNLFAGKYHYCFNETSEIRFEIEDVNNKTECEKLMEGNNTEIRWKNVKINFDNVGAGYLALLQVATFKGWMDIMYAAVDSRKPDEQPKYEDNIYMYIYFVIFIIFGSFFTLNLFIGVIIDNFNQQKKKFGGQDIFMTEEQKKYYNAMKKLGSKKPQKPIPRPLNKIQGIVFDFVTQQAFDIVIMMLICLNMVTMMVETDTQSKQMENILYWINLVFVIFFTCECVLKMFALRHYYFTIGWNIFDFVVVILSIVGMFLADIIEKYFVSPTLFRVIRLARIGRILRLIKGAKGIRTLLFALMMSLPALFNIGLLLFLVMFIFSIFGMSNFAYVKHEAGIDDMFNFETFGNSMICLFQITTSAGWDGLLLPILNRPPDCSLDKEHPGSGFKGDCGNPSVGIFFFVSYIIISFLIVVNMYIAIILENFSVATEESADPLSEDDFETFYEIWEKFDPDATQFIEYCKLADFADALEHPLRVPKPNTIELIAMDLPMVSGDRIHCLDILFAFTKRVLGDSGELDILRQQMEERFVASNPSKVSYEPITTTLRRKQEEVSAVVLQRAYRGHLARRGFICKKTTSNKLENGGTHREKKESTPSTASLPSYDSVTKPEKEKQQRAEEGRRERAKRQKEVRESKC

As to `O=c1oc2ncc(-c3ccc(OC(F)(F)F)cc3)cc2n1CC(F)(F)F` [Compound 22], the inhibition at 1 µM was under 30%.

With `O=C1CCCN1CCn1c(=O)oc2ccc(-c3ccc(OC(F)(F)F)cc3)nc21` [Compound 142], the inhibition at 1 µM was under 30%.

As for `COC[C@@H]1CCN(C(=O)Cn2c(=O)oc3ccc(-c4ccc(OC(F)(F)F)cc4)cc32)C1` (single isomer, unassigned) [Compound 138], the inhibition at 1 µM lay in the range of 30 to 70%.

Take `Cc1nc(Cn2c(=O)oc3ccc(-c4ccc(OC(F)(F)F)cc4)nc32)co1` [Compound 159]: the inhibition at 1 µM is over 70%.

Consider `O=c1oc2ccc(-c3ccc(OC(F)(F)F)cc3)nc2n1C[C@@H]1CCCO1` (single isomer, unassigned) [Compound 64], for which the inhibition at 1 µM is over 70%.

Take `O=c1oc2ccc(-c3ccc(OC(F)(F)F)cc3)cc2n1Cc1cnccn1` [Compound 131]: the inhibition at 1 µM is over 70%.

With `O=c1oc2ccc(-c3ccc(OC(F)(F)F)cc3)nc2n1C[C@H]1CCCCO1` (single isomer, unassigned) [Compound 54], the inhibition at 1 µM lay within 30 to 70%.

For the compound `Cn1c(=O)oc2ccc(-c3ccc(OC(F)(F)F)cc3)nc21` [Compound 75], the inhibition at 1 µM was over 70%.

As for `O=C(Cn1c(=O)oc2ccc(-c3ccc(OC(F)(F)F)cc3)cc21)N1CCCC1` [Compound 17], the inhibition at 1 µM was in the range of 30 to 70%.

Take `COCc1cc(OC(F)(F)F)ccc1-c1ccc2oc(=O)n(CC(F)(F)F)c2c1` [Compound 7]: the inhibition at 1 µM was over 70%.

With `O=c1oc2ccc(-c3ccc(OC(F)(F)F)cc3)cc2n1C[C@H]1CCCCO1` (single isomer, unassigned) [Compound 59], the inhibition at 1 µM lay in the range of 30 to 70%.

In the case of `Cn1cnnc1Cn1c(=O)oc2ccc(-c3ccc(OC(F)(F)F)cc3)nc21` [Compound 163], the inhibition at 1 µM was under 30%.

For `CS(=O)(=O)N1CCC[C@H]1Cn1c(=O)oc2ccc(-c3ccc(OC(F)(F)F)cc3)cc21` [Compound 113], the inhibition at 1 µM is 30 to 70%.

Take `Cc1cc(Cn2c(=O)oc3ccc(-c4ccc(OC(F)(F)F)cc4)nc32)no1` [Compound 156]: the inhibition at 1 µM is over 70%.

`O=c1oc2ncc(-c3ccc(OC(F)(F)F)cc3)cc2n1Cc1ncccn1` [Compound 49]: the inhibition at 1 µM is under 30%.

For the origin of these results see patent US11492345B2, “Compounds and their methods of use” (Praxis Precision Medicines, Inc., priority 2017, dated 2022).
